# PubChem BioAssay (NCI)
#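 Each compound was tested at five concentrations against cells in 96-well plates for 48 hours. Definition used: TGI = concentration required for complete inhibition of growth.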
# Tested on: SF-295 CNS
# Assay: NCI anticancer screen, dose series, 48 h
row,Structure (SMILES),TGI [µM]
1,CN1CCN([C@H]2C[C@H]3[C@@H]4CC=C5C[C@@H](O)CC[C@]5(C)[C@H]4CC[C@]3(C)[C@H]2O)CC1,> 100
2,CC1C2(C)OCC(C#N)(C(=N)O2)C1(C#N)C#N (stereo unspecified),> 100
3,C=CC[C@H](N=C(SC)SC)C(=O)N1C(=O)N(C)[C@@H](C)[C@H]1c1ccccc1,> 100
4,CC(=O)c1sc2[n+](c1C)C(=O)/C(=C\c1ccccc1Cl)S2,33
5,CCCCCCCCCCCCOP(=O)(O)OP(=O)(O)OCC1OC(n2cc(C)c(=O)[nH]c2=O)CC1O (stereo unspecified),> 100
6,O=C1c2cc([N+](=O)[O-])sc2C(=O)c2c([N+](=O)[O-])csc21,2.32
7,C[C@H](CCC(=O)NCC(=O)O)[C@H]1CC[C@H]2[C@@H]3[C@H](O)C[C@@H]4C[C@H](O)CC[C@]4(C)[C@H]3CC[C@]12C,> 100
8,CCOc1cc2c(cc1O)C(N)C[C@@H]1[C@@H]2CC[C@]2(C)[C@@H](O)CC[C@@H]12 (stereo partly specified),> 100
9,CC(C)C(NC(=O)C(Cc1ccccc1)NC(=O)[C@H]1CCC[C@H]1NC(=O)C(Cc1ccc(OC(C)(C)C)cc1)NC(=O)OC(C)(C)C)C(N)=O (stereo partly specified),34.5
10,Cc1ccc(NC(=O)CC(=O)n2nc(C)c(N=Nc3cccc(C)c3)c2C)cc1,> 100
11,N#C/C(=C\c1ccc2[nH]ccc2c1)C(=O)c1ccc(O)c(O)c1,> 100
12,O=[N+]([O-])/C(C(Cl)=C(Cl)Cl)=C(/Nc1ccccc1)Sc1ccccc1,47.5
13,Cc1ccc2c(c1C)C(=O)/C(=C/c1cccc(C)c1C(=O)O)C2,> 100
14,O=C1N(c2ccccc2)C(=S)/C(=C/c2ccc(Cl)cc2)N1c1ccc(Cl)cc1,> 100
15,O=C1C=C(N2CCN(CCOCCO)CC2)C(=O)c2c(O)ccc(O)c21,27.8
16,CC/C(N)=N\NC(=O)OC(C)(C)C,> 100
17,CC(=O)NC1C(OCc2ccccc2)OC(CO)C(O)C1OCC(=O)N[C@@H](C)C(=O)N[C@H](CCC(=O)NCCCNc1ccc([N+](=O)[O-])c2[nH]c3ccccc3c(=O)c12)C(N)=O (stereo partly specified),> 100
18,CN(C)CCCNC(=O)c1cn2c(ccc3sc4ccccc4c(=O)c32)n1,17.4
19,O=P(O)(O)CN1CCNCCN(CP(=O)(O)O)CC1,> 100
20,c1cc2c(cc1C1=NCCN1)c1cc(C3=NCCN3)ccc1n2CC1CCCCC1,> 100
21,C=C1CC2[C@H](C)C(=O)CCC2(C)C2=C1C1CCC(C(C)CCC(=C)C(C)C(=O)O)C1(C)CC2=O (stereo partly specified),> 100
22,CC(C)NC(=O)OCc1c(COC(=O)NC(C)C)c(-c2cc[n+](COC(=O)C3CCCCC3)cc2)n2c1CCC2,> 100
23,O=[N+]([O-])C(C=C(n1nnc2ccccc21)n1nnc2ccccc21)=C(n1nnc2ccccc21)n1nnc2ccccc21,> 100

# Tested on: HL-60(TB) leukemia
# Assay: NCI anticancer screen, dose series, 48 h
row,Structure (SMILES),TGI [µM]
1,CCNC(=S)N/N=C(\C)c1cccc(C)n1,53.6
2,CN1CCN([C@H]2C[C@H]3[C@@H]4CC=C5C[C@@H](O)CC[C@]5(C)[C@H]4CC[C@]3(C)[C@H]2O)CC1,39.7
3,CC1C2(C)OCC(C#N)(C(=N)O2)C1(C#N)C#N (stereo unspecified),38.2
4,C=CC[C@H](N=C(SC)SC)C(=O)N1C(=O)N(C)[C@@H](C)[C@H]1c1ccccc1,> 100
5,CC(=O)c1sc2[n+](c1C)C(=O)/C(=C\c1ccccc1Cl)S2,39
6,CCCCCCCCCCCCOP(=O)(O)OP(=O)(O)OCC1OC(n2cc(C)c(=O)[nH]c2=O)CC1O (stereo unspecified),> 100
7,O=C1c2cc([N+](=O)[O-])sc2C(=O)c2c([N+](=O)[O-])csc21,0.112
8,C[C@H](CCC(=O)NCC(=O)O)[C@H]1CC[C@H]2[C@@H]3[C@H](O)C[C@@H]4C[C@H](O)CC[C@]4(C)[C@H]3CC[C@]12C,> 100
9,CCOc1cc2c(cc1O)C(N)C[C@@H]1[C@@H]2CC[C@]2(C)[C@@H](O)CC[C@@H]12 (stereo partly specified),46.5
10,CC(C)C(NC(=O)C(Cc1ccccc1)NC(=O)[C@H]1CCC[C@H]1NC(=O)C(Cc1ccc(OC(C)(C)C)cc1)NC(=O)OC(C)(C)C)C(N)=O (stereo partly specified),> 100
11,Cc1ccc(NC(=O)CC(=O)n2nc(C)c(N=Nc3cccc(C)c3)c2C)cc1,> 100
12,N#C/C(=C\c1ccc2[nH]ccc2c1)C(=O)c1ccc(O)c(O)c1,> 95.1
13,O=[N+]([O-])/C(C(Cl)=C(Cl)Cl)=C(/Nc1ccccc1)Sc1ccccc1,42.4
14,Cc1ccc2c(c1C)C(=O)/C(=C/c1cccc(C)c1C(=O)O)C2,> 100
15,O=C1N(c2ccccc2)C(=S)/C(=C/c2ccc(Cl)cc2)N1c1ccc(Cl)cc1,74.4
16,O=C1C=C(N2CCN(CCOCCO)CC2)C(=O)c2c(O)ccc(O)c21,> 29.2
17,CC/C(N)=N\NC(=O)OC(C)(C)C,> 100
18,CC(=O)NC1C(OCc2ccccc2)OC(CO)C(O)C1OCC(=O)N[C@@H](C)C(=O)N[C@H](CCC(=O)NCCCNc1ccc([N+](=O)[O-])c2[nH]c3ccccc3c(=O)c12)C(N)=O (stereo partly specified),> 100
19,CN(C)CCCNC(=O)c1cn2c(ccc3sc4ccccc4c(=O)c32)n1,22.2
20,O=P(O)(O)CN1CCNCCN(CP(=O)(O)O)CC1,18.2
21,c1cc2c(cc1C1=NCCN1)c1cc(C3=NCCN3)ccc1n2CC1CCCCC1,59.6
22,C=C1CC2[C@H](C)C(=O)CCC2(C)C2=C1C1CCC(C(C)CCC(=C)C(C)C(=O)O)C1(C)CC2=O (stereo partly specified),31.4
23,CC(C)NC(=O)OCc1c(COC(=O)NC(C)C)c(-c2cc[n+](COC(=O)C3CCCCC3)cc2)n2c1CCC2,> 100
24,O=[N+]([O-])C(C=C(n1nnc2ccccc21)n1nnc2ccccc21)=C(n1nnc2ccccc21)n1nnc2ccccc21,> 100

# Tested on: ACHN renal
# Assay: NCI anticancer screen, dose series, 48 h
row,Structure (SMILES),TGI [µM]
1,CCNC(=S)N/N=C(\C)c1cccc(C)n1,> 100
2,CN1CCN([C@H]2C[C@H]3[C@@H]4CC=C5C[C@@H](O)CC[C@]5(C)[C@H]4CC[C@]3(C)[C@H]2O)CC1,> 100
3,CC1C2(C)OCC(C#N)(C(=N)O2)C1(C#N)C#N (stereo unspecified),> 100
4,C=CC[C@H](N=C(SC)SC)C(=O)N1C(=O)N(C)[C@@H](C)[C@H]1c1ccccc1,> 100
5,CC(=O)c1sc2[n+](c1C)C(=O)/C(=C\c1ccccc1Cl)S2,36
6,CCCCCCCCCCCCOP(=O)(O)OP(=O)(O)OCC1OC(n2cc(C)c(=O)[nH]c2=O)CC1O (stereo unspecified),> 100
7,O=C1c2cc([N+](=O)[O-])sc2C(=O)c2c([N+](=O)[O-])csc21,0.779
8,C[C@H](CCC(=O)NCC(=O)O)[C@H]1CC[C@H]2[C@@H]3[C@H](O)C[C@@H]4C[C@H](O)CC[C@]4(C)[C@H]3CC[C@]12C,> 100
9,CCOc1cc2c(cc1O)C(N)C[C@@H]1[C@@H]2CC[C@]2(C)[C@@H](O)CC[C@@H]12 (stereo partly specified),> 100
